Literature values, collected in patent publication US20170333338A1, “SUSTAINED AND REVERSIBLE ORAL DRUG DELIVERY SYSTEMS” (The Children's Medical Center Corporation, priority 2014, published 2017).

SMILES: NCCC(O)(P(=O)(O)O)P(=O)(O)O [Pamidronate]
- highest pKa of the phosphate groups: 10.18
